Where only a bound is given, the exact number is not on record here.

What all share (format): biochemical
The target of one assay is T1, HLE (Homo sapiens, UniProt P08246).
T1 construct: chromogenic substrate MeOSuc-AAPV-pNA
T1 sequence (P08246 30-267): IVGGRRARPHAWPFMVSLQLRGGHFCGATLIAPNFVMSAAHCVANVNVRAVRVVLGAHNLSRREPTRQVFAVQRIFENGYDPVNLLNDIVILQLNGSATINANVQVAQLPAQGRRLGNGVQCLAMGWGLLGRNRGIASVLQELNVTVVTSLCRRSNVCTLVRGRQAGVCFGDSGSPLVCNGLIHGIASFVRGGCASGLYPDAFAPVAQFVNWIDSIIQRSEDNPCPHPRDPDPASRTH
Put plainly: inhibition of HLE followed as a function of time (FIG. 1). The following applies: 10-fold molar excess of inhibitor, assayed at regular intervals (2 to 5 minutes). The method, then: To further document the rapid, irreversible inhibition of this enzyme at low, nearly stoichiometric ratios of inhibitor to enzyme, for selected compounds, this inhibition was followed as a function of time.
The data in FIG. 1 were generated by incubating the enzyme with a 10-fold molar excess of inhibitor. Assays of residual enzymatic activity of this mixture were assayed at regular intervals (2 to 5 minutes).

The target in assay [1] is porcine pancreatic elastase (PPE) (Sus scrofa, UniProt P00772). Put plainly: IC50 determination, inhibition of porcine pancreatic elastase (PPE). To be noted: 5 min incubation with the inhibitor.
The target of assay [2] is T2, human leukocyte elastase (HLE) (Homo sapiens, UniProt P08246).
T2 construct: purchased Elastin Products Company, Inc. (Owensville, Mo.)
T2 sequence (P08246 30-267): T1 sequence (P08246 30-267)
In words: IC50 determination, inhibition of human leukocyte elastase (HLE), hydrolysis of N-(methoxysuccinyl)-L-alanyl-L-alanyl-L-prolyl-L-valine 4-nitroanilide at 410 nm. The following applies: 5 min incubation with the inhibitor; pH 7.5 Tris buffer.

Chain of porcine pancreatic elastase (PPE) (P00772 27-266): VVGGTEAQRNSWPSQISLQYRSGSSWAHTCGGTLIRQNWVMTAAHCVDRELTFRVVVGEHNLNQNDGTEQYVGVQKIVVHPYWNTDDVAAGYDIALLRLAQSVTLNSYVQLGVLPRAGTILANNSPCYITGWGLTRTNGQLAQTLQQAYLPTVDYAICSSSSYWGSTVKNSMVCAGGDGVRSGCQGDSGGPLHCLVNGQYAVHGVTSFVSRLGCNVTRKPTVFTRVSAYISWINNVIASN

As for `COC(=O)/C=C1/C(=O)N2C(C(=O)OC(c3ccccc3)c3ccccc3)=C(COC(C)=O)CS[C@H]12` [Compound 24, Benzhydryl 7-[(Z)-methoxycarbonylmethylene]cephalosporanate], at HLE, the “residual HLE activity / inhibition as a function of time” value (“residual HLE activity / inhibition” for short) is given as “very potent, irreversible inhibitors of HLE”. Also, the values for the IC50 in assay [1] and in assay [2] were above 10 µM and 2.6 µM, respectively.

Take `COC(=O)/C=C1/C(=O)N2C(C(=O)OC(c3ccccc3)c3ccccc3)=C(COC(C)=O)CS(=O)(=O)[C@H]12` [Compound 25, Benzhydryl 7-[(Z)-(methoxycarbonyl)methylene]cephalosporanate sulfone]: the IC50 is above 10 µM in assay [1] and 8.9 µM in assay [2].

Consider `CC(=O)OCC1=C(C(=O)OC(c2ccccc2)c2ccccc2)N2C(=O)/C(=C/C#N)[C@H]2S(=O)(=O)C1` [Compound 31, Benzhydryl 7-[(Z)-cyanomethylene]cephalosporanate sulfone], for which the IC50 in assay [2] worked out at 0.49 µM.

In the case of `CC(=O)OCC1=C(C(=O)OC(c2ccccc2)c2ccccc2)N2C(=O)C(=C(Br)Br)[C@H]2S(=O)(=O)C1` [Compound 14, Benzhydryl 7-[dibromomethylene]cephalosporanate sulfone], the “residual HLE activity / inhibition” value on HLE was “very potent, irreversible inhibitors of HLE”. The figures for the IC50 in assay [1] and in assay [2] were 4.8 µM and 2.07 µM, respectively.

In the case of `CC(=O)/C=C1/C(=O)N2C(C(=O)OC(c3ccccc3)c3ccccc3)=C(COC(C)=O)CS[C@H]12` [Compound 28, Benzhydryl 7-[(Z)-acetylmethylene]cephalosporanate], the “residual HLE activity / inhibition” value at HLE is “leveling off and allowing the enzyme to regain its activity”. The results for the IC50 in assay [1] and in assay [2] were above 10 µM and 4.27 µM, respectively.

Consider `CC(=O)OCC1=C(C(=O)OC(c2ccccc2)c2ccccc2)N2C(=O)/C(=C\c3ccccc3)[C@H]2S(=O)(=O)C1` [Compound 12, Benzhydryl 7-[(E)-benzylidene]cephalosporanate sulfone], for which the IC50 in assay [1] was above 10 µM; in assay [2], 6 µM.

Regarding `CON(C)C(=O)/C=C1/C(=O)N2C(C(=O)OC(c3ccccc3)c3ccccc3)=C(COC(C)=O)CS(=O)(=O)[C@H]12` [Compound 27, Benzhydryl 7-[(Z)-N-methoxy-N-methylaminocarbonylmethylene]cephalosporanatesulfone], the IC50 in assay [1] and in assay [2] was above 10 µM in each case.

For `CC(=O)OCC1=C(C(=O)OC(c2ccccc2)c2ccccc2)N2C(=O)/C(=C/C#N)[C@H]2SC1` [Compound 30, Benzhydryl 7-[(Z)-cyanomethylene]cephalosporanate], the IC50 in assay [2] was above 10 µM.

In the case of `C=C=C1C(=O)N2C(C(=O)OC(c3ccccc3)c3ccccc3)=C(COC(C)=O)CS[C@H]12` [Compound 7, Benzhydryl 7-vinylidenecephalosporanate], the concentration for half-maximal inhibition (IC50) in assay [1] worked out at 0.67 µM; in assay [2], 9 µM.

With `[2H]C(=C=C1C(=O)N2C(C(=O)OC(c3ccccc3)c3ccccc3)=C(COC(C)=O)CS(=O)(=O)[C@H]12)C(C)(C)C` [Compound 5b], the midpoint of inhibition in assay [2], the IC50, lay at 13.5 µM.

As for `CC(=O)OCC1=C(C(=O)OC(c2ccccc2)c2ccccc2)N2C(=O)/C(=C/C(=O)OC(C)(C)C)[C@H]2S(=O)(=O)C1` [Compound 18, Benzhydryl 7-[(Z)-(t-butoxycarbonyl)methylene]-cephalosporanate sulfone], the results for the IC50 in assay [1] and in assay [2] were above 10 µM and 7.1 µM, respectively.

On to `CC(=O)OCC1=C(C(=O)OC(c2ccccc2)c2ccccc2)N2C(=O)C(=C(Cl)Cl)[C@H]2S(=O)(=O)C1` [Compound 23, Benzhydryl 7-[dichloromethylene]cephalosporanate sulfone], for which the IC50 in assay [1] was above 10 µM; in assay [2], 2.56 µM.

In the case of `CC(=O)OCC1=C(C(=O)OC(c2ccccc2)c2ccccc2)N2C(=O)/C(=C/C=O)[C@H]2SC1` [Compound 19, Benzhydryl 7-[(Z)-formylmethylene]cephalosporanate], the IC50 in assay [1] was 5.2 µM; in assay [2] it was 13.9 µM.

For the compound `CC(=O)OCC1=C(C(=O)OC(c2ccccc2)c2ccccc2)N2C(=O)/C(=C/C(=O)OC(C)(C)C)[C@H]2SC1` [Compound 17, Benzhydryl 7-[(Z)-t-butoxycarbonylmethylene]cephalosporanate], the concentration for half-maximal inhibition (IC50) in assay [2] was above 10 µM.

On to `CC(=O)OCC1=C(C(=O)OC(c2ccccc2)c2ccccc2)N2C(=O)/C(=C\Br)[C@H]2SC1` [Compound 15, Benzhydryl 7-[(E)-bromomethylene]cephalosporanate], for which, on HLE, the “residual HLE activity / inhibition” value was “very potent, irreversible inhibitors of HLE”. In addition, the IC50 in assay [1] was determined as 9.6 µM; in assay [2], 0.39 µM.

On to `CC(=O)OCC1=C(C(=O)OC(c2ccccc2)c2ccccc2)N2C(=O)C(=C=CC(C)(C)C)[C@H]2SC1` [Compound 4, Benzhydryl 7-(t-butylvinylidene)cephalosporanate], for which the IC50 in assay [1] is 5.5 µM; in assay [2], above 10 µM.

Regarding `CC(=O)OCC1=C(C(=O)OC(c2ccccc2)c2ccccc2)N2C(=O)C[C@H]2SC1` [Compound 33, reference compound], the IC50 in assay [1] and in assay [2] was above 10 µM in each case.

As to `C=C=C1C(=O)N2C(C(=O)OC(c3ccccc3)c3ccccc3)=C(COC(C)=O)CS(=O)(=O)[C@H]12` [Compound 8, Benzhydryl 7-vinylidenecephalosporanate sulfone], the results for the IC50 in assay [1] and in assay [2] were 4.1 µM and 6.1 µM, respectively.

Turning to `COC(=O)/C(Br)=C1/C(=O)N2C(C(=O)OC(c3ccccc3)c3ccccc3)=C(COC(C)=O)CS[C@H]12` [Compound 32, Benzhydryl 7-{[(E)-bromo-(Z)-methoxycarbonyl]methylidene} cephalosporanate], half-maximal inhibition in assay [2] (IC50) was put at 0.21 µM.

Regarding `CC(=O)OCC1=C(C(=O)OC(c2ccccc2)c2ccccc2)N2C(=O)/C(=C\c3ccccc3)[C@H]2SC1` [Compound 11, Benzhydryl 7-[(E)-benzylidene]cephalosporanate], the IC50 in assay [1] and in assay [2] was above 10 µM throughout.

Turning to `CC(=O)/C=C1/C(=O)N2C(C(=O)OC(c3ccccc3)c3ccccc3)=C(COC(C)=O)CS(=O)(=O)[C@H]12` [Compound 29, Benzhydryl 7-[(Z)-acetylmethylene]cephalosporanate sulfone], the IC50 in assay [1] was 6 µM; in assay [2], above 10 µM.

For the compound `CO[C@H]1C(=O)N2C(C(=O)OC(c3ccccc3)c3ccccc3)=C(COC(C)=O)CS[C@H]12` [Compound 36, reference compound], in assay [2], the IC50 is 5.35 µM. This counts as single-digit micromolar.

For `CC(=O)OCC1=C(C(=O)OC(c2ccccc2)c2ccccc2)N2C(=O)[C@@H](N)[C@H]2SC1` [Compound 1, Benzhydryl 7β-aminocephalosporanate], the IC50 in assay [1] and in assay [2] was above 10 µM in each case.

As for `CC(=O)OCC1=C(C(=O)OC(c2ccccc2)c2ccccc2)N2C(=O)/C(=C/c3ccccn3)[C@H]2S(=O)(=O)C1` [Compound 21, Benzhydryl 7-[(Z)-(2'-pyridyl)methylene]cephalosporanate sulfone], the IC50 in assay [1] and in assay [2] was above 10 µM throughout.

Take `CC(=O)OCC1=C(C(=O)OC(c2ccccc2)c2ccccc2)N2C(=O)/C(=C/c3ccccc3)[C@H]2S(=O)(=O)C1` [Compound 10, Benzhydryl 7-[(Z)-benzylidene]cephalosporanate sulfone]: the IC50 in assay [1] is above 10 µM; in assay [2] it was 8.9 µM.

In the case of `CC(=O)OCC1=C(C(=O)OC(c2ccccc2)c2ccccc2)N2C(=O)C(=O)[C@H]2SC1` [Compound 2, Benzhydryl 7-oxocephalosporanate], the half-inhibitory concentration (IC50) in assay [1] and in assay [2] was above 10 µM throughout.

As for `CO[C@H]1C(=O)N2C(C(=O)OC(c3ccccc3)c3ccccc3)=C(COC(C)=O)CS(=O)(=O)[C@H]12` [Compound 37, reference compound], inhibition in assay [2] was half-maximal at 0.28 µM (IC50).

For `CC(=O)OCC1=C(C(=O)OC(c2ccccc2)c2ccccc2)N2C(=O)C(=C=CC(C)(C)C)[C@H]2S(=O)(=O)C1` [Compound 5a, Benzhydryl 7-t-butylvinylidene cephalosporanate sulfone], the half-maximal inhibitory concentration (IC50) in assay [1] was above 10 µM; in assay [2] it was 10.5 µM.

Take `CC(=O)OCC1=C(C(=O)OC(c2ccccc2)c2ccccc2)N2C(=O)/C(=C/c3ccccc3)[C@H]2SC1` [Compound 9, benzhydryl 7-[(Z)-benzylidene] cephalosporanate]: the IC50 in assay [1] and in assay [2] was above 10 µM each time.

For the compound `CC(=O)OCC1=C(C(=O)OC(c2ccccc2)c2ccccc2)N2C(=O)C(=C=CBr)[C@H]2SC1` [Compound 6, Benzhydryl 7-(-bromovinylidene)cephalosporanate], the IC50 was above 10 µM in assay [1] and 5.4 µM in assay [2].

`CC(=O)OCC1=C(C(=O)OC(c2ccccc2)c2ccccc2)N2C(=O)/C(=C/c3ccccn3)[C@H]2SC1` [Compound 20, Benzhydryl 7-[(Z)-(2'-pyridyl)methylene]cephalosporanate]: the IC50 in assay [1] and in assay [2] was above 10 µM each time.

With `CC(=O)OCC1=C(C(=O)OC(c2ccccc2)c2ccccc2)N2C(=O)/C(=C/CO)[C@H]2SC1` [Compound 26, Benzhydryl 7-[(Z)-(hydroxymethyl)methylene]cephalosporanate], the IC50 in assay [1] and in assay [2] was above 10 µM throughout.

The record behind these values is US5760027A, “Use of 7-alkylidene cephalosporins to inhibit elastase activity” (Research Corporation Technologies, Inc., priority 1996, dated 1998).
